Data taken from patent publication US6180625A, “Heterocyclic compounds regulating clotting” (Novo Nordisk A/S, priority 1998, dated 2001).

Tested on: not given
Test: not given
Conditions: blood; cited from earlier work

| Molecule | half-life |
| --- | --- |
| heparin | approximately 80 minutes |

Biological target: T1, fVIIa/TF (Homo sapiens, UniProt P08709)
T1 construct: Single-chain fVII may be converted to two-chain fVIIa by factor Xa, factor XIIa, factor IXa, fVIIa or thrombin in vitro
Test: fX activation assay
Assay type: biochemical
Conditions: 100 pM fVIIa, 5 pM TF, 175 nM fX, 5-min incubation, S-2765 substrate, read-out: IC50 TF/FVII/FX
Description: Inhibitory Compounds are Identified in a fX Activation Assay:
The compounds are dissolved in DMSO and mixed with a solution of fVIIa in Ca^2 +-containing buffer (1+5). 30 μl of this mixture was then mixed with 45 μl TF (relipidated in PC/PS vesicles) and 25 μl of a solution containing fX, all in Ca^2 +-containing buffer. This gives final concentrations of 100 pM fVIIa, 5 pM TF, 175 nM fX and various concentrations of the compounds. After a 5-min incubation, the fVIIa/TF-catalyzed activation of fX is terminated by the addition of 50 μl buffer containing enough EDTA to give an excess over the Ca^2+ ions present. 50 μl of a 2-mM solution of S-2765 (fXa substrate) is then added and the fXa formed is allowed to hydrolyze the substrate for 10 minutes during which the absorbance at 405 nm is continuously monitored in a SPECTRAmax™ 340 plate reader. The slope of the absorption curve is compared to that of a control where DMSO alone was added to fVIIa/TF/fX.
IC50 TF/FVII/FX: The IC50 value in μM found from the FX activation assay

T1 sequence (P08709 213-466 limits assumed): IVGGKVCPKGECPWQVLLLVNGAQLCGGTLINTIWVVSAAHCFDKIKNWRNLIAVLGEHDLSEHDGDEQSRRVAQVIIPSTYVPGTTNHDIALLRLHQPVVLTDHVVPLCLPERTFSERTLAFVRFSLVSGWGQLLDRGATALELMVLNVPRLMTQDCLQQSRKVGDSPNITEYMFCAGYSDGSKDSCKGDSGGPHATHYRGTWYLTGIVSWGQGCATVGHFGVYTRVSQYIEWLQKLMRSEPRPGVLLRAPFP
T1 sequence (P08709 61-212 limits assumed): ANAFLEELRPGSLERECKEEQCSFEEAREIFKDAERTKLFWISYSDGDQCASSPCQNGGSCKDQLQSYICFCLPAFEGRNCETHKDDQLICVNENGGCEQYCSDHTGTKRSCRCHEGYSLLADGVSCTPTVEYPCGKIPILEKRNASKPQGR
T1 sequence (P13726 33-295 partner): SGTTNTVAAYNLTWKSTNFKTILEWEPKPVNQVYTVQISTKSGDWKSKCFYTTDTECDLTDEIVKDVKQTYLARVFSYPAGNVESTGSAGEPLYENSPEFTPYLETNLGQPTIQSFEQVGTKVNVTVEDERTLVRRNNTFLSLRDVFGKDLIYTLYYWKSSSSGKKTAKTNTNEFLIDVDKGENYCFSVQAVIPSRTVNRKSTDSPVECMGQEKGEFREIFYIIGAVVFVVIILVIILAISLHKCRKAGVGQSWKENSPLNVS

| Molecule | IC50 [µM] |
| --- | --- |
| Cc1cccc(-c2nc3ccccc3c(=O)o2)c1 [Example 13, 2-m-Tolyl-4H-3,1-benzoxazin-4-one] | 0.6 |
| Cc1ccc2nc(-c3c(F)cccc3Cl)oc(=O)c2c1 [Example 41, 2-(2-Chloro-6-fluorophenyl)-6-methyl-4H-3,1-benzoxazin-4-one] | 0.9 |
| COc1ccc(Br)c(-c2nc3ccccc3c(=O)o2)c1 [Example 43, 2-(2-Bromo-5-methoxy-phenyl)-4H-3,1-benzoxazin-4-one] | 1.1 |
| COC(=O)c1cccc2nc(-c3ccccc3F)oc(=O)c12 [Example 75, 2-(2-Fluoro-phenyl)-4-oxo-4H-benzo[d][1,3]oxazine-5-carboxylic acid methyl ester] | 5.6 |
| O=c1oc(-c2ccccc2[N+](=O)[O-])nc2cccc([N+](=O)[O-])c12 [Example 83, 5-Nitro-2-(2-nitro-phenyl)-benzo[d][1,3]oxazin-4-one] | 0.32 |
| O=c1oc(-c2cccnc2Cl)nc2cccc([N+](=O)[O-])c12 [Example 87, 2-(2-Chloro-pyridin-3-yl)-5-nitro-benzo[d][1,3]oxazin-4-one] | 2.8 |
| O=c1oc(-c2ccccc2F)nc2ccc(C(F)(F)F)cc12 [Example 95, 2-(2-Fluoro-phenyl)-6-trifluoromethyl-benzo[d][1,3]oxazin-4-one] | 3.1 |
| O=c1oc(-c2c(F)cccc2F)nc2cccc(Cl)c12 [Example 116, 5-Chloro-2-(2,6-difluoro-phenyl)-benzo[d][1,3]oxazin-4-one] | 0.17 |
